Results taken from patent publication US20080269326A1, “Use of 1-Phenyl-3-Dimethylamino-propane Compounds for Treating Neuropathic Pain” (GRUENENTHAL GmbH, priority 2007, published 2008).

What was measured:
[1] = tested on: cold allodynia in Bennett animals; experiment: Bennett model (chronic constriction injury), cold allodynia on 4° C. cold metal plate; format: in vivo, rat; settings: for ED50: Rattus norvegicus
Experimental: The effectiveness in treating neuropathic pain was investigated in the Bennett model (chronic constriction injury; Bennett and Xie, 1988, Pain 33: 87-107).
(§1) Sprague-Dawley rats weighing 140-160 g are provided with four loose ligatures of the right sciatic nerve under nembutal narcosis. The animals develop a hypersensitivity in the paw innervated by the damaged nerve, which after a healing phase of one week is quantified over about four weeks by means of a 4° C. cold metal plate (cold allodynia). The animals are observed for two minutes on this plate and the number of retractive movements of the damaged paw are measured. The effect of the substance is determined with reference to the base value before application of the substance, at four different times over a period of one hour(15, 30, 45 and 60 minutes after application) and the resultant area under the curve (AUD) as well as the inhibition of cold allodynia at the individual measurement points is expressed in percent effect with reference to the vehicle control (AUD) and to the initial value (individual measurement points). The cohort size is n=10.

[2] = tested on: tactile allodynia in Chung animals; experiment: Chung model (spinal nerve ligature), tactile allodynia, electronic von Frey; format: in vivo; settings: Rattus norvegicus, ip, 0.5 h; rats, i.p., 30 minutes after administration
Experimental: Spinal nerve ligatures according to Kim & Chung (1992 Pain 50, 355-363) were applied to the left L5/L6 spinal nerves of male Spraque-Dawley rats. Four to six days after the operation the tactile threshold baseline (withdrawal threshold) was measured on the ipsilateral and contralateral rear paw by an electronic von Frey anaesthesiometer (IITC Life Science, USA). After the test and measurement of the baseline, morphine, gabapentin and some of the aforementioned compounds used according to the invention were administered. The tactile withdrawal thresholds were measured 30 minutes after the administration. The results are expressed as ED50 and % maximal possible effect (% MPE) on the ipsilateral side, in which the baseline is taken as 0% and the withdrawal threshold of a control group is taken as 100% MPE.

[3] = tested on: cold allodynia in morphine-tolerant Bennett animals; experiment: Bennett model cold allodynia in morphine-tolerant animals; format: in vivo, rat
Experimental: as §1
The underlying question is the action of a test substance having a presumably opioid action mechanism in patients who are tolerant or treatment-resistant to morphine. […] The action of test substances in naive (non-morphine-tolerant) animals and morphine-tolerant animals is compared in Table 4. […] Morphine [10 mg/kg i.p.], Compound 9 [10 and 21.5 mg/kg i.p.], Compound 10 [0.46 and 1 mg/kg i.p.], Compound 4 [21.5 mg/kg i.p.] and Compound 11 [21.5 mg/kg i.p.] were tested analogously to Example 1.

[4] = tested on: neuropathic pain; experiment: Tests of substances together with naloxone in treating neuropathic pain; format: in vivo
[5] = tested on: mechanical hyperalgesia in diabetic animals; experiment: Streptozotocin diabetic neuropathy, mechanical hyperalgesia (Randall and Sellito); format: in vivo, rat; settings: diabetic rats; for ED50: Rattus norvegicus, ip, i.p., read-out: Mechanical hyperalgesia ED50 (95% confidence region)
Experimental: Male Sprague-Dawley rats weighing 160-180 g received an intra-peritoneal injection of streptozotocin (75 mg/kg body weight) dissolved in pH 4.6 citrate buffer. One week later diabetic animals were identified by measuring the blood glucose level, and those with a blood glucose level of ≧17 mM were included in the study. Three and four weeks after administration of streptozotocin the mechanical reaction threshold was measured in diabetic animals by the method of Randall and Sellito (1957 Arch. Int. Pharmacody. […]:409-419) before (pre-test) and at various times after administration of the test substance or vehicle (post-test). […] The maximum pressure exerted on the rear paw was 250 g. The end point of the mechanical reaction threshold in grams was determined based on the reaction of the animal (withdrawal of the rear paw, vocalisation or evasive reaction). The size of the cohort in the individual dose stages was n=10. The maximum possible response in percent (% MPE=% of maximum possible effect) was calculated according to the formula:
% MPE=(post-test−pre-test)/(250−pre-test)×100.
ED50 values (dose at which 50% maximum inhibition occurred) were determined by regression analysis from the % MPE values at the time of the maximum effect.

CC[C@](O)(c1cccc(OC)c1)[C@H](C)CN(C)C (racemic) [Compound 1, (2RS,3RS)-1-dimethylamino-3-(3-methoxyphenyl)-2-methylpentan-3-ol]
ED50 ([1]; ip, rats): 11.1 mg/kg | ED50 [2]: 10.1 mg/kg

C[C@H](CN(C)C)[C@@](C)(O)c1cccc(O)c1 (racemic) [Compound 5, (1RS,2RS)-3-(3-dimethylamino-1-hydroxy-1,2-dimethylpropyl)-phenol]
ED50 ([1]; ip, rats): 15 mg/kg

CC[C@](O)(c1cccc(C(F)F)c1)[C@H](C)CN(C)C (racemic) [Compound 8, (2RS,3RS)-3-(difluoromethylphenyl)-1-dimethylamino-2-methylpentan-3-ol]
Cold allodynia ED50 ([1]; rats, i.p.): 17.1 mg/kg

CC[C@@](O)(c1cccc(OC)c1)[C@@H](C)CN(C)C [Compound 2, (2S,3S)-1-dimethylamino-3-(3-methoxyphenyl)-2-methylpentan-3-ol]
ED50 ([1]; ip, rats): 26 mg/kg

CC[C@](O)(c1cccc(OC)c1)[C@H](C)CN(C)C [Compound 3, (2R,3R)-1-dimethylamino-3-(3-methoxyphenyl)-2-methylpentan-3-ol]
ED50 ([1]; ip, rats): 9.2 mg/kg

C[C@@H](CN(C)C)[C@](C)(O)c1cccc(O)c1 [Compound 6, (1S,2S)-3-(3-dimethylamino-1-hydroxy-1,2-dimethylpropyl)phenol]
ED50 ([1]; ip, rats): 32.6 mg/kg | ED50 [2]: 4.65 mg/kg

C[C@H](CN(C)C)[C@@](C)(O)c1cccc(O)c1 [Compound 7, (1R,2R)-3-(3-dimethylamino-1-hydroxy-1,2-dimethylpropyl)phenol]
ED50 ([1]; ip, rats): 11.1 mg/kg

CC[C@H](c1cccc(O)c1)[C@H](C)CN(C)C [Compound 10, (1S,2S)-3-(3-dimethylamino-1-ethyl-2-methylpropyl)phenol]
Cold allodynia (% AUD) Naïve animals ([1]; 0.46 mg/kg i.p.): 29.0 % AUD | Cold allodynia (% AUD) Naïve animals ([1]; 1 mg/kg i.p.): 42.7 % AUD | Cold allodynia (% AUD) Naïve animals ([1]; 2.15 mg/kg i.p.): 59.2 % AUD | ED50 ([1]; ip, rats): 1.2 mg/kg | Cold allodynia (% AUD) Morphine-tolerant animals ([3]; 0.46 mg/kg i.p.): 22.9 % AUD | Cold allodynia (% AUD) Morphine-tolerant animals ([3]; 1 mg/kg i.p.): 39.9 % AUD | Cold allodynia (% AUD) Morphine-tolerant animals ([3]; 2.15 mg/kg i.p.): 13.0 % AUD | ED50 [2]: 1.5 mg/kg | effectiveness in treating neuropathic pain with naloxone [4]: effective

CC(CN(C)C)=C(C)c1cccc(O)c1 [Compound 14, 3-(3-dimethylamino-1,2-dimethylpropenyl)-phenol]
ED50 ([1]; ip, rats): 3.6 mg/kg

NCC1(CC(=O)O)CCCCC1 [Gabapentin, reference compound]
ED50 ([1]; po, rats): 214 mg/kg | ED50 [2]: 92.6 mg/kg | ED50 [5]: 225 mg/kg | Mechanical hyperalgesia Maximum effect in % MPE ([5]; 464 mg/kg i.p.): 80% (464 mg/kg) % MPE

CN1CC[C@]23c4c5ccc(O)c4O[C@H]2[C@@H](O)C=C[C@H]3[C@H]1C5 [Morphine, reference compound]
Cold allodynia (% AUD) Naïve animals ([1]; 10 mg/kg i.p.): 78.6 % AUD | ED50 ([1]; ip, rats): 7.1 mg/kg | Cold allodynia (% AUD) Morphine-tolerant animals ([3]; 10 mg/kg i.p.): −22.0 % AUD | anti-allodynic action (cold allodynia) in morphine-tolerant animals ([3]; i.p.): no longer exhibits any effect | ED50 [2]: 4.6 mg/kg | ED50 [5]: 3 mg/kg | Mechanical hyperalgesia Maximum effect in % MPE ([5]; 10 mg/kg i.p.): 89% (10 mg/kg) % MPE | effectiveness in treating neuropathic pain with naloxone [4]: effective

COc1cccc(C2(O)CCCCC2CN(C)C)c1 (stereo not drawn) [Tramadol]
ED50 [5]: 9.2 mg/kg | Mechanical hyperalgesia Maximum effect in % MPE ([5]; 21.5 mg/kg i.p.): 86% (21.5 mg/kg) % MPE
